In patent US9700546B2, “Trivalent chromium compounds, compositions and methods of use” (INTERHEALTH NUTRACEUTICALS, INC., priority 2006, dated 2017):
Like-named read-outs stand apart in the source and are kept apart here.

Assays:
[1] = system: Obese Zucker rats; assay: In vivo assessment in obese Zucker rats: other vascular inflammation markers (cAMP, TNFα, IL-6, OxyDNA); conditions: obese Zucker rats, daily 400 μg Cr(III)/kg, 8 weeks, mean ± SE; for OxyDNA: oxidative DNA damage
[2] = system: Obese Zucker rats; assay: In vivo assessment in obese Zucker rats: key biological parameters (fasting glucose, HbA1c, vitamin C, GSH, RBC lipid peroxidation); conditions: obese Zucker rats, daily 400 μg Cr(III)/kg, 8 weeks, mean; for RBC Lipid Peroxidase: malondialdehyde by thiobarbituric acid; for Fasting Glucose: fasted overnight; for Vitamin C: plasma
[3] = system: Obese Zucker rats; assay: In vivo assessment in obese Zucker rats: clinical chemistry (AP, BUN, CRT, AST, ALT); conditions: obese Zucker rats; mean ± SE
[4] = system: Obese Zucker rats; assay: In vivo assessment in obese Zucker rats: blood lipid profile (total cholesterol, triglycerides, HDL); conditions: daily 400 μg Cr(III)/kg, 8 weeks, mean
[5] = system: Obese Zucker rats; assay: In vivo assessment in obese Zucker rats: vascular inflammation markers (MCP-1, CRP, RBP-4, leptin, ICAM, adiponectin); conditions: obese Zucker rats, daily 400 μg Cr(III)/kg, 8 weeks, mean; for Adiponectin / CRP / MCP-1 / ICAM: plasma, ELISA
[6] = system: Obese Zucker rats; conditions: rat, in vivo
[7] = system: Obese Zucker rats; assay: In vivo assessment in obese Zucker rats: body weight and food intake; conditions: obese Zucker rats, daily 400 μg Cr(III)/kg, mean; for Food Intake 5 wks: at 5 weeks; for Food Intake 7 wks: at 7 weeks

Compound | IL-6 [1] | TNFα [1] | cAMP [1] | OxyDNA [1] | RBC Lipid Peroxidase [2] | Fasting Glucose [2] | GSH [2] | HbA1c [2] | ALT (Alanine Aminotransferease) [3] | AP (Alkaline phosphatase) [3] | AST (Aspartate Aminotransferase) [3] | HDL [4] | Total Chol/HDL [4] | Total Cholesterol [4] | Triglyceride [4] | Leptin [5] | RBP-4 [5] | Adiponectin [5] | CRP [5] | MCP-1 [5] | other results
CCC(=O)[O-].CCC(=O)[O-].CCC(=O)[O-].[Cr+3] [CrProp, Chromium Propionate, reference compound] | 90.50 ± 14.02 pg/mL | 41.14 ± 10.06 pg/mL | 26.95 ± 1.13 pmol/mL | 47.19 ± 5.07 ng/mL | 2.18 nmol/mL | 549.49 mg/dL | 4.76 µmol/g | 16.90% | 207.00 u/L | 32.20 u/L | 347.25 u/L | 64.19 mg/dL | 2.68 ratio | 170.56 mg/dL | 456.14 mg/dL | 393.47 pg/mL | 49851.91 ng/mL | 12903.52 ng/mL | 820.04 ng/mL | 4497.83 pg/mL | Anion Gap [3]: 29.20; BUN (Blood Urea Nitrogen) [3]: 22.25 mg/dL; BUN/CRT Ratio [3]: 53.40; CRT (Creatinine) [3]: 0.40 mg/dL; Total Bilirubin [3]: 0.10 mg/dL
Chromium Cinnamate [CrCin] | 92.94 ± 13.21 pg/mL | 8.62 ± 4.90 pg/mL | 29.24 ± 0.61 pmol/mL | 48.71 ± 1.25 ng/mL | 3.12 nmol/mL | 557.37 mg/dL | 5.00 µmol/g | 15.61% |  |  |  | 65.44 mg/dL | 2.94 ratio | 191.11 mg/dL | 507.35 mg/dL | 379.18 pg/mL | 47905.13 ng/mL | 11507.60 ng/mL | 587.35 ng/mL | 2428.69 pg/mL | ALT (Alanine Aminotransferease) [6]: 158.71 u/L; AP (Alkaline phosphatase) [6]: 30.71 u/L; AST (Aspartate Aminotransferase) [6]: 230.14 u/L; Anion Gap [6]: 29.86; BUN (Blood Urea Nitrogen) [6]: 21.43 mg/dL; BUN/CRT Ratio [6]: 51.86; CRT (Creatinine) [6]: 0.41 mg/dL; Total Bilirubin [6]: 0.10 mg/dL
Chromium Dinicotinate Argininate [Cr(nic)2Arg] | 92.35 ± 2.79 pg/mL | 17.84 ± 1.26 pg/mL | 38.96 ± 3.88 pmol/mL | 58.26 ± 2.57 ng/mL | 2.47 nmol/mL | 628.87 mg/dL | 4.89 µmol/g | 16.56% |  |  |  | 69.78 mg/dL | 3.00 ratio | 186.16 mg/dL | 554.65 mg/dL | 335.80 pg/mL | 52537.50 ng/mL | 9279.38 ng/mL | 628.49 ng/mL | 3235.62 pg/mL | Vitamin C [2]: 0.14 mg %; Food Intake 5 wks [7]: 40.22 g/day; Food Intake 7 wks [7]: 45.28 g/day; ICAM [5]: 18591.76 pg/mL
Chromium Dinicotinate Aspartate [Cr(nic)2Asp] | 88.91 ± 2.25 pg/mL |  | 27.95 ± 1.22 pmol/mL | 41.92 ± 1.46 ng/mL | 2.02 nmol/mL | 496.33 mg/dL | 5.15 µmol/g | 15.62% |  |  |  | 70.17 mg/dL | 2.88 ratio | 202.17 mg/dL | 699.67 mg/dL | 406.15 pg/mL | 57870.00 ng/mL | 12078.33 ng/mL | 602.51 ng/mL | 1431.68 pg/mL | Vitamin C [2]: 0.12 mg %; Food Intake 5 wks [7]: 38.90 g/day; Food Intake 7 wks [7]: 40.00 g/day; ICAM [5]: 17985.91 pg/mL
Chromium Glucodinicotinate [Cr(nic)2Gluc] | 81.59 ± 5.21 pg/mL | 29.40 ± 8.87 pg/mL | 22.25 ± 1.58 pmol/mL | 45.10 ± 3.76 ng/mL | 2.00 nmol/mL | 474.38 mg/dL | 4.62 µmol/g | 15.21% | 138.00 u/L | 27.00 u/L | 238.67 u/L | 65.71 mg/dL | 3.06 ratio | 197.33 mg/dL | 534.43 mg/dL | 388.37 pg/mL | 48851.14 ng/mL | 11448.39 ng/mL | 530.74 ng/mL | 1977.46 pg/mL | Anion Gap [3]: 29.00; BUN (Blood Urea Nitrogen) [3]: 21.33 mg/dL; CRT (Creatinine) [3]: 0.40 mg/dL; Total Bilirubin [3]: 0.10 mg/dL; BUN/CRT Ratio [6]: 53.67
Chromium Picolinate + Biotin [CrP + Biotin] |  |  |  |  |  |  |  |  |  |  |  |  |  |  |  |  |  |  |  |  | ALT (Alanine Aminotransferease) [6]: 100.71 u/L; AP (Alkaline phosphatase) [6]: 64.00 u/L; AST (Aspartate Aminotransferase) [6]: 160.29 u/L; Anion Gap [6]: 25.86; BUN (Blood Urea Nitrogen) [6]: 19.14 mg/dL; BUN/CRT Ratio [6]: 46.50; CRT (Creatinine) [6]: 0.41 mg/dL; Total Bilirubin [6]: 0.10 mg/dL
Chromium Triphenylalanine [Cr(Phe)3, reference compound] | 89.82 ± 8.55 pg/mL | 15.92 ± 7.76 pg/mL | 29.62 ± 1.01 pmol/mL | 53.11 ± 4.76 ng/mL | 2.01 nmol/mL | 549.70 mg/dL | 4.50 µmol/g | 15.04% | 186.29 u/L | 30.00 u/L | 276.43 u/L | 60.82 mg/dL | 2.84 ratio | 169.68 mg/dL | 467.04 mg/dL | 387.92 pg/mL | 48555.98 ng/mL | 11243.47 ng/mL | 533.12 ng/mL | 2064.89 pg/mL | Anion Gap [3]: 29.00; BUN (Blood Urea Nitrogen) [3]: 20.71 mg/dL; BUN/CRT Ratio [3]: 52.14; CRT (Creatinine) [3]: 0.40 mg/dL; Total Bilirubin [3]: 0.10 mg/dL
Chromium Tryptophanate [CrTrp] | 86.62 ± 6.81 pg/mL | 36.61 ± 14.89 pg/mL | 20.03 ± 0.96 pmol/mL | 45.14 ± 2.77 ng/mL | 1.78 nmol/mL | 402.77 mg/dL | 4.54 µmol/g | 14.16% | 124.29 u/L | 30.00 u/L | 237.43 u/L | 60.54 mg/dL | 3.46 ratio | 208.09 mg/dL | 921.22 mg/dL | 601.72 pg/mL | 60593.24 ng/mL | 11122.93 ng/mL | 609.82 ng/mL | 2578.59 pg/mL | Anion Gap [3]: 30.14; BUN (Blood Urea Nitrogen) [3]: 17.43 mg/dL; BUN/CRT Ratio [3]: 45.86; CRT (Creatinine) [3]: 0.39 mg/dL; Total Bilirubin [3]: 0.10 mg/dL
Chromium tris(5-hydroxytryptophan) [Cr(5HTP)3] | 94.32 ± 11.71 pg/mL | 13.35 ± 8.28 pg/mL | 25.64 ± 2.39 pmol/mL | 45.89 ± 4.53 ng/mL | 1.93 nmol/mL | 585.25 mg/dL | 5.04 µmol/g | 16.15% | 167.00 u/L | 25.00 u/L | 267.43 u/L | 68.84 mg/dL | 2.72 ratio | 184.77 mg/dL | 452.96 mg/dL | 359.61 pg/mL | 44517.99 ng/mL | 11831.51 ng/mL | 589.26 ng/mL | 1932.18 pg/mL | Anion Gap [3]: 29.43; BUN (Blood Urea Nitrogen) [3]: 22.86 mg/dL; BUN/CRT Ratio [3]: 57.29; CRT (Creatinine) [3]: 0.40 mg/dL; Total Bilirubin [3]: 0.10 mg/dL
